Laboratory results from PubChem BioAssay (NCI).
“And” between values parts separate entries of the source, which are not always exact repeats. Equal entries are not always repeated.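 All cell lines were grown in 96-well plates and treated with compound for 48 hours. At the GI50, growth is halved. Definition used: TGI = concentration required for complete inhibition of growth.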

Columns and labels:
Assay in all cases: growth of human tumour cells (NCI), 48 h
MOLT-4 leukemia = tested on: MOLT-4 leukemia
SK-MEL-5 melanoma = tested on: SK-MEL-5 melanoma
K-562 leukemia = tested on: K-562 leukemia
OVCAR-4 ovarian = tested on: OVCAR-4 ovarian
COLO 205 colon = tested on: COLO 205 colon
HL-60(TB) leukemia = tested on: HL-60(TB) leukemia
SK-OV-3 ovarian = tested on: SK-OV-3 ovarian
HCC-2998 colon = tested on: HCC-2998 colon
HT29 colon = tested on: HT29 colon
SK-MEL-28 melanoma = tested on: SK-MEL-28 melanoma

Structure (SMILES)	GI50 (MOLT-4 leukemia)	TGI (MOLT-4 leukemia)	GI50 (SK-MEL-5 melanoma)	TGI (SK-MEL-5 melanoma)	GI50 (K-562 leukemia)	TGI (K-562 leukemia)	GI50 (OVCAR-4 ovarian)	TGI (OVCAR-4 ovarian)	GI50 (COLO 205 colon)	TGI (COLO 205 colon)	GI50 (HL-60(TB) leukemia)	TGI (HL-60(TB) leukemia)	GI50 (SK-OV-3 ovarian)	TGI (SK-OV-3 ovarian)	GI50 (HCC-2998 colon)	TGI (HCC-2998 colon)	GI50 (HT29 colon)	TGI (HT29 colon)	GI50 (SK-MEL-28 melanoma)	TGI (SK-MEL-28 melanoma)
COc1cc2cc(Oc3ccc(NC(=O)c4cccc(C(F)(F)F)c4)cc3)c(C)nc2cc1OC	4.72 µM	> 100 µM	2.45 µM	8.84 µM	4.25 µM	> 100 µM	3.68 µM	> 100 µM	4.65 µM	> 100 µM	3.84 µM	> 100 µM	> 100 µM	> 100 µM	8.03 µM	> 100 µM	6.65 µM	> 100 µM	6.61 µM	> 100 µM
COc1ccc([C@H]2CC(=O)N3CCCC3N2)cc1 (stereo not given in full)		> 100 µM		> 100 µM		> 100 µM		> 100 µM		> 100 µM		> 100 µM		> 100 µM		> 100 µM		> 100 µM		> 100 µM
NS(=O)(=O)c1ccc(N2Cc3cc(Cl)ccc3OC3=C2C(=O)N(CC2CCCCC2)C3=O)cc1	0.195 µM	0.531 µM	1.77 µM	3.25 µM	0.27 µM	0.736 µM	0.897 µM	2.46 µM	0.716 µM	2.28 µM	0.283 µM	0.828 µM	2.07 µM	4.26 µM	1.84 µM	3.51 µM	0.392 µM	1.1 µM	1.16 µM	2.57 µM
Nc1nc2c(ncn2Cc2ccccc2CCO)c(=O)[nH]1		> 100 µM		> 100 µM		> 100 µM		> 100 µM		> 100 µM		> 100 µM		> 100 µM		> 100 µM		> 100 µM		> 100 µM
S=C(N/N=C/c1cc(Cl)cc(Cl)c1)NC12CC3CC(CC(C3)C1)C2	> 100 µM	> 100 µM	> 100 µM	> 100 µM	> 100 µM	> 100 µM	2.12 µM	6.07 µM	7.13 µM	> 100 µM	> 100 µM	> 100 µM	5.06 µM	> 46 µM	> 100 µM	> 100 µM	> 58.3 µM	> 100 µM	14.4 µM	> 100 µM
CC1(C)C(=O)C(O)=CC2C1=CCC1C2(C)C(=O)CC2(C)C(C(C)(O)C(=O)CC(O)C(C)(C)O)C(O)CC12C (stereo not given)		> 81.8 µM		8.53 µM		> 80.2 µM		11.8 µM		> 100 µM		11.6 µM		28.9 µM		14 µM		> 64.5 µM		7.43 µM
Nc1c(C(=O)Nc2ccc([As](=O)(O)O)cc2)cnc2nnnn12		> 100 µM		> 100 µM		> 100 µM		> 100 µM		> 100 µM		> 100 µM		> 100 µM		> 100 µM		> 100 µM		> 100 µM
CC(C)n1c(/C=C/[C@@H](O)C[C@@H](O)CC(=O)O)c(-c2ccc(F)cc2)c2ccccc21	16.4 µM and 21.9 µM	67.5 µM and > 100 µM	3.94 µM and 4.9 µM	35.4 µM and 27 µM	5.94 µM and 6.56 µM	> 100 µM	10.4 µM and 12.9 µM	> 100 µM	4.44 µM and 6.2 µM	15.3 µM and > 65.1 µM	14.5 µM and 10.9 µM	55.2 µM and > 100 µM	19.8 µM and > 51.3 µM	> 100 µM	10.4 µM and 28.4 µM	> 100 µM	12.8 µM and 15.6 µM	> 100 µM	12.2 µM and 15.4 µM	53.9 µM and > 86.3 µM
O=C1c2ccccc2N2OC3(N4CCCC4)CCCC3C12c1ccccc1 (stereo not given)		> 100 µM		> 100 µM		> 100 µM		> 100 µM		> 100 µM		> 100 µM		> 100 µM		> 100 µM		> 100 µM		> 100 µM
C=C(C)C1CC2C(C)=C(OC(C)=O)C1n1c(=O)c3cc4ccccc4cc3c(=O)n12 (stereo not given)		> 100 µM		> 100 µM		> 100 µM		> 100 µM		> 100 µM		> 36 µM		> 100 µM		> 100 µM		> 100 µM		> 100 µM
Clc1ccc(COC(Cn2ccnc2)c2ccc(Cl)cc2Cl)cc1 (stereo not given)	2.03 µM	5.89 µM and 20.7 µM and 18.1 µM	1.74 µM and 17.2 µM and 4.83 µM	3.64 µM and 31 µM and 18.9 µM	2.8 µM	10.2 µM and 23.9 µM and 21.1 µM	2.29 µM	13.6 µM and 27.7 µM and 24.5 µM	1.84 µM	3.97 µM and 24.6 µM and 22.5 µM	2.42 µM	5.2 µM and 22.7 µM and 16.6 µM	4.24 µM	14.8 µM and 26.8 µM and 35.2 µM	2.72 µM	10.5 µM and 29.6 µM and 30 µM	1.95 µM	5.22 µM and 22.4 µM and 21.5 µM	4.66 µM	16.6 µM and 34.6 µM and 30 µM
CN1CCCN(CCNc2nccc(-c3c(-c4cccc(O)c4)nc4sccn34)n2)S1(=O)=O	14.5 µM and 10.2 µM	52.1 µM and 41.2 µM	1.17 µM and 1.23 µM	11.2 µM and 13.8 µM	12.9 µM and 5.9 µM	75 µM and > 100 µM	6.72 µM and 8.49 µM	52.2 µM and > 100 µM	0.423 µM and 0.477 µM	12.4 µM and 21.8 µM	14.1 µM and 11.3 µM	38.3 µM and 32 µM	3.44 µM and 3.21 µM	21.3 µM and 17 µM	13.4 µM and 19.4 µM	34.5 µM and > 88.2 µM	2.32 µM and 2.33 µM	42.2 µM and > 100 µM	0.168 µM and 0.226 µM	60.8 µM and 40.3 µM
Cc1cc(N(CCNc2ccnc3cc(Cl)ccc23)Cc2ccc3c(c2)OCO3)nc(N2CCN(C)CC2)n1	2.09 µM	8.36 µM	1.79 µM	3.25 µM	1.16 µM	3.93 µM	2.83 µM	13.9 µM	1.86 µM	3.69 µM	2.06 µM	4.27 µM	9.55 µM	21.6 µM	2.12 µM	4.88 µM	1.84 µM	5.96 µM	1.89 µM	3.53 µM
CC(C)N(C(C)C)[PH+]1O[PH+](N(C(C)C)C(C)C)O[PH+](N(C(C)C)C(C)C)O[PH+](N(C(C)C)C(C)C)O[PH+](N(C(C)C)C(C)C)O1.[C-]#[O+].[C-]#[O+].[C-]#[O+].[C-]#[O+].[C-]#[O+].[C-]#[O+].[C-]#[O+].[Cr].[Cr] (stereo not given)	> 100 µM	> 100 µM	> 100 µM	> 100 µM	> 100 µM	> 100 µM	> 100 µM	> 100 µM	> 100 µM	> 100 µM	> 100 µM	> 100 µM	> 100 µM	> 100 µM	> 100 µM	> 100 µM	> 100 µM	> 100 µM	> 100 µM	> 100 µM
COC1/C=C/OC2(C)Oc3c(C)c(O)c4c(c3C2=O)C(=O)C=C(NC(=O)/C(C)=C\C=C\C(C)C(OC=O)C(C)C(O)C(C)C(OC(C)=O)C1C)C4=O (stereo not given)		10.8 µM		31.6 µM		20.7 µM		19.1 µM		18 µM		5.88 µM		56.7 µM		35.4 µM		23.4 µM		15 µM
